Test results: US5183828A, “Polyhydroxybenzoic acid derivatives” (priority 1990, dated 1993)
pIC50: −log10 of the molar value. Counter-ions that a name gives are not always drawn.

Key:
[1] = target: ribonucleotide reductase; experiment: ribonucleotide reductase inhibition (conversion of CDP to dCDP), Table 1; assay type: biochemical; settings: enzyme partially purified from HeLa cells or Ehrlich ascites cells; 40 min, 30° C; read-out: ID50 (inhibitory dose which inhibits ribonucleotide reductase by 50%)
Description: Compounds represented by formula I above have the ability to inhibit ribonucleotide reductase, an enzyme involved in the reductive conversion of ribonucleotides to deoxyribonucleotides. This enzymatic reaction is a rate controlling step in the biosynthetic pathway leading to DNA and cell replication. In general, the ribonucleotide reductase level is closely correlated with cellular replication. […] In addition, the compounds have shown activity against P388 leukemia and B16 melanoma.
The results of biological tests of compounds according to formula I are incorporated in a series of Tables which follow. Table 1 gives ribonucleotide reductase data for representative compounds of formula I. In the table, column 1 gives the substitution pattern in the benzene- ring, column 2, the (CHR")m group, column 3, the [drawing 5] group, and column 4, the ID50 (inhibitory dose in micromolar concentration which inhibits ribonucleotide reductase by 50%) in μmoles.
In the above determination of ID50 's in Table 1, ribonucleotide reductase is partially purified from HeLa cells or Ehrlich ascites cells by a procedure similar to that set forth by Elford et al. J. Biol. Chem., 245, 5228 (1970). The activity of the enzyme was measured by a slightly modified assay procedure originally developed by Reichard et al. id, 236, 1150 (1969). This procedure measures the conversion of CDP to dCDP. The assay mixture (0.34 ml.) contains 3 μCi of [^3 H] CDP (specific activity […]), 3.3 μmole ATP, 5.9 μmoles magnesium chloride, 8.8 μmoles Hepes buffer at pH=7.5, 15 μmoles dithiothreitol and enzyme protein between 0.4 and 1.3 mg. Incubation was provided for forty minutes at 30° C. Ion exchange chromatography employing Dowex 50 (H^+) resin is used to separate the product from the substrate. The inhibitors were dissolved in water and a mixture of water and up to 1% ethanol or 2% dimethylsulfoxide, neither one of which inhibited the enzyme at these concentrations. Each inhibitor was tested at a minimum of three concentrations and the active compounds reassayed at least one additional time. ID50 's (μmolar) were estimate from graphs summarizing results for each compound.

[2] = tested on: L1210; experiment: antileukemia activity of nitriles vs L1210, Table 8; assay type: in vivo
Description: Table 8 which follows gives anti-tumor data vs L-1210 and P-388 leukemia for these novel nitriles.

[3] = tested on: L1210 leukemia; experiment: antitumor activity in L1210 leukemia (percent increase in survival time), Table 2; assay type: in vivo, mice; settings: 8 days; for ILS at 200 mg/kg: 200 mg/kg ip daily; for ILS at 100 mg/kg: 100 mg/kg ip daily
Procedure: Testing of the compounds of this invention against L-1210 lymphoid leukemia were carried out as follows: L-1210 leukemia was maintained by weekly passage of 10^5 L-1210 cells intraperitoneally into DBA/2 mice. Diluted ascitic fluid, 0.1 ml. (10^5 cells), was administered ip to female B6D2 F1 mice weighing about 20 g. Drugs were administered ip 24 hours after tumor transplantation and injections were continued daily for a total of eight days. A group of control mice receiving only the injection medium were maintained. Table 2 which follows gives the antitumor activity against L-1210 leukemia for certain compounds of this invention. In the table, column 1 gives the name of the compound, column 2 the dose in mg./kg., and column 3 the percent increase in survival time over controls at each dose level.

[4] = free radical scavenging ability (destruction of diphenylpicrylhydrazyl), Table 7; settings: 100 μM diphenylpicrylhydrazyl in acetone; test compound 25 μM, 2.5 μM (footnote)
Description: It is believed that the antineoplastic activity of the compounds of this invention is due in parts to their ability to scavenge free-radicals. Additionally, the compounds of this invention are cancer protective agents and this utility also may be a manifestation of their free-radical scavenging capability. Free-radical scavenging agents may also be useful in detoxifying mammals in whom an excess of free radicals is a cause and/or result of the toxicity. Other possible uses of free radical scavengers are to inhibit protaglandin transformation, leucotriene interconversion and lipogenesis, to act as inflammatory modulators and as food additive or preservatives to prevent lipid oxidation. The free radical scavenging ability of the compounds of the invention was determined by measuring the destruction of the stable free radical, diphenylpicrylhydrazyl, in the presence of the test compound in a manner similar to that reported by […] and Herzmann, Naturwiss, 47, 133-134 (1960). […] The test compound was added at a final concentration of 25 μM and the rate of reduction of absorpotion at […] was observed. Table 7 below gives the free radical scavenging abilities of the compounds of this invention expresses as the initial rate of decrease in optical density units/min.

[5] = tested on: superoxide (xanthine oxidase reaction or human leukocytes); experiment: effect on superoxide generation in vitro; assay type: biochemical
Procedure: The rate of production of superoxide from the xanthine oxidase reaction or from human leukocytes activated with phorbol myristate acetate was measured spectrophotometrically as the superoxide dismutase (SOD)-inhibitable portion of the reduction of ferricytochrome c or nitroblue tetrazolium (NBT). All assays were carried out at 37° C., pH 7.1. For the superoxide production by the xanthine oxidase reaction, a concentration of 0.04 U/ml of xanthine oxidase was used with 0.1 mM xanthine as substrate. Absorbances were measured in the presence of 30 U/ml of SOD and in its absence. The indicators were either ferricytochrome c or NBT in a concentration of 20 uM. The initial rate of reduction of NBT was monitored at 530 nm and that of cytochrome c at 550 nm. Extinction coefficients were 21.4×10 ^3 /M cm for cytochrome c and 17.9×10^3 /M cm for NBT. The initial rate of production of superoxide from leukocytes was measured using a concentration of 20 uM ferricytochrome c or NBT as described above in the presence and absence of 30 U/ml of SOD.

[6] = Mus musculus, L1210, 192 h, 300 mg/kg ip daily

Compound: N=C(N)c1cc(O)c(O)c(O)c1 [drawing 14]
- pIC50 [1]: 4.60

Compound: ON=C(NO)c1ccc(O)c(O)c1 [drawing 11]
- pIC50 [1]: 4.40

Compound: N#Cc1cc(O)c(O)c(O)c1O [2,3,4,5-tetrahydroxybenzonitrile]
- % Increase in Survival Time ([2]; 163 mg/kg): 48.4%
- % Increase in Survival Time ([2]; 230 mg/kg): Toxic

Compound: CCOC(=N)c1ccc(O)c(O)c1 [drawing 9]
- pIC50 [1]: 4.92

Compound: N#Cc1ccc(O)c(O)c1O [2,3,4-trihydroxybenzonitrile]
- % Increase in Survival Time ([2]; 50 mg/kg): 11.0%
- % Increase in Survival Time ([2]; 100 mg/kg): 26.0%
- % Increase in Survival Time ([2]; 155 mg/kg): 12.1%
- % Increase in Survival Time ([2]; 259 mg/kg): Toxic
- % Increase in Survival Time ([2]; 327 mg/kg): Toxic

Compound: ON=C(NO)c1ccc(O)c(O)c1 [3,4-dihydroxybenzohydroxyamidoxime-HCl, 3,4-Dihydroxybenzohydroxyamidoxime hydrochloride]
- ILS at 155 mg/kg ([3]; Mus musculus, L1210, 192 h, 155 mg/kg ip daily): 39%
- ILS at 200 mg/kg ([3]; Mus musculus, L1210, 192 h): 47.8%
- ILS at 300 mg/kg [3, 6]: 41.3%

Compound: CCOC(=N)c1ccc(O)c(O)c1 [ethyl 3,4-dihydroxybenzamidate-HCl, ethyl 3,4-dihydroxybenzamidate hydrochloride]
- % Increase in Survival Time ([3]; 218 mg/kg ip daily): toxic
- % Increase in Survival Time ([3]; 327 mg/kg ip daily): toxic
- % Increase in Survival Time ([3]; 435 mg/kg ip daily): toxic
- initial rate of decrease in optical density (518 nm) [4]: 0.706 units/min.

Compound: NC(=NO)c1ccc(O)c(O)c1O [drawing 17]
- pIC50 [1]: 5.15

Compound: CCOC(=N)c1cc(O)c(O)c(O)c1 [drawing 13]
- pIC50 [1]: 4.82

Compound: Cl.NC(=NO)c1cccc(O)c1O [2,3-dihydroxybenzamidoxime-HCl]
- % Increase in Survival Time ([3]; 300 mg/kg ip daily): toxic

Compound: ON=C(NO)c1cc(O)c(O)c(O)c1 [drawing 16]
- pIC50 [1]: 4.60

Compound: N#Cc1ccc(O)c(O)c1 [3,4-dihydroxybenzonitrile]
- % Increase in Survival Time ([2]; 47.6 mg/kg): 4.7%
- % Increase in Survival Time ([2]; 95.2 mg/kg): 15.6%
- % Increase in Survival Time ([2]; 196 mg/kg): Toxic

Compound: N#Cc1c(O)c(O)c(O)c(O)c1O [pentahydroxybenzonitrile]
- % Increase in Survival Time ([2]; 34.3 mg/kg): 14.2%
- % Increase in Survival Time ([2]; 51.5 mg/kg): 0%
- % Increase in Survival Time ([2]; 77.2 mg/kg): Toxic
- % Increase in Survival Time ([2]; 116.0 mg/kg): Toxic

Compound: ON=C(NO)c1cc(O)c(O)c(O)c1 [3,4,5-trihydroxybenzohydroxyamidoxime-HCl]
- ILS at 100 mg/kg ([3]; Mus musculus, L1210, 192 h): 47.2%
- ILS at 200 mg/kg ([3]; Mus musculus, L1210, 192 h): 55.6%
- ILS at 300 mg/kg [3, 6]: 63.9%
- initial rate of decrease in optical density (518 nm) [4]: 0.882 units/min.

Compound: NC(=NO)c1ccc(O)c(O)c1O [2,3,4-trihydroxybenzamidoxime-HCl, 2,3,4-trihydroxybenzamidoxime]
- % Increase in Survival Time ([3]; 300 mg/kg ip daily): toxic
- ILS at 100 mg/kg ([3]; Mus musculus, L1210, 192 h): 38.9%
- ILS at 200 mg/kg ([3]; Mus musculus, L1210, 192 h): 36.1%
- ILS at 218 mg/kg ([3]; Mus musculus, L1210, 192 h, 218 mg/kg ip daily): 67.7%

Compound: Cl.N=C(N)c1ccc(O)c(O)c1 [3,4-dihydroxybenzamidine-HCl]
- ILS at 52 mg/kg ([3]; Mus musculus, L1210, 192 h, 52 mg/kg ip daily): 26.8%
- ILS at 100 mg/kg ([3]; Mus musculus, L1210, 192 h): 58.3%
- ILS at 104 mg/kg ([3]; Mus musculus, L1210, 192 h, 104 mg/kg ip daily): 34.1%
- ILS at 200 mg/kg ([3]; Mus musculus, L1210, 192 h): 41.7%
- ILS at 300 mg/kg [3, 6]: 47.2%
- ILS at 400 mg/kg ([3]; Mus musculus, L1210, 192 h, 400 mg/kg ip daily): 47.8%
- ILS at 603 mg/kg ([3]; Mus musculus, L1210, 192 h, 603 mg/kg ip daily): 83%
- initial rate of decrease in optical density (518 nm) [4]: 1.721 units/min.

Compound: N=C(N)c1ccc(O)c(O)c1 [drawing 10]
- pIC50 [1]: 4.70

Compound: 3,4,5-TRIHYDROXYBENZAMIDATE
- Cytochrome C Reduction ([5]; 10 uM compound): 4.89 nmol
- NBT Reduction ([5]; 10 uM compound): 7.60 nmol
- Cytochrome C Reduction ([5]; 20 uM compound): 3.21 nmol
- NBT Reduction ([5]; 20 uM compound): 6.10 nmol
- Cytochrome C Reduction ([5]; 50 uM compound): 2.22 nmol
- NBT Reduction ([5]; 50 uM compound): 3.67 nmol
- Cytochrome C Reduction ([5]; 100 uM compound): 1.91 nmol
- NBT Reduction ([5]; 100 uM compound): 1.78 nmol
- NBT Reduction ([5]; 200 uM compound): 1.45 nmol
- NBT Reduction ([5]; 500 uM compound): 1.23 nmol

Compound: NC(=NO)c1ccc(O)c(O)c1 [drawing 8]
- pIC50 [1]: 5.10

Compound: NC(=NO)c1cc(O)c(O)c(O)c1 [drawing 12]
- pIC50 [1]: 5.30

Compound: NC(=NO)C(O)c1ccc(O)c(O)c1.O (stereo not shown) [3,4-dihydroxymandelamidoxime, 3,4-dihydroxymandelamidoxime monohydrate]
- ILS at 435 mg/kg ([3]; Mus musculus, L1210, 192 h, 435 mg/kg ip daily): 45.2%
- ILS at 606 mg/kg ([3]; Mus musculus, L1210, 192 h, 606 mg/kg ip daily): 45.2%
- initial rate of decrease in optical density (518 nm) [4]: 0.383 units/min.

Compound: NC(=NO)c1cccc(O)c1O
- pIC50 [1]: 4.74
